Laboratory results published in patent US20250215012A1, “IKZF2 DEGRADERS AND USES THEREOF” (REGENTS OF THE UNIVERSITY OF MICHIGAN, priority 2022, published 2025).

Target: IKZF2 (Homo sapiens (Human), UniProt Q96SW2+Q9UKS7)
Experiment: IKZF2 HiBiT Assay (Jurkat-IKZF2-HiBiT cell line)
Type: cell-based
Settings: Jurkat-IKZF2-HiBiT cells, 24 hours; for DC50: read-out: HiBit assay degradation analysis DC50; for Dmax: read-out: HiBit assay degradation analysis Dmax
Summary of the method: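 IKZF2 degradation was assessed as HiBiT luminescence in Jurkat-IKZF2-HiBiT cells, using lytic detection after 24 h of compound treatment at 37 °C, 5% CO2.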

IKZF2, sequence (Q9UKS7 whole entry): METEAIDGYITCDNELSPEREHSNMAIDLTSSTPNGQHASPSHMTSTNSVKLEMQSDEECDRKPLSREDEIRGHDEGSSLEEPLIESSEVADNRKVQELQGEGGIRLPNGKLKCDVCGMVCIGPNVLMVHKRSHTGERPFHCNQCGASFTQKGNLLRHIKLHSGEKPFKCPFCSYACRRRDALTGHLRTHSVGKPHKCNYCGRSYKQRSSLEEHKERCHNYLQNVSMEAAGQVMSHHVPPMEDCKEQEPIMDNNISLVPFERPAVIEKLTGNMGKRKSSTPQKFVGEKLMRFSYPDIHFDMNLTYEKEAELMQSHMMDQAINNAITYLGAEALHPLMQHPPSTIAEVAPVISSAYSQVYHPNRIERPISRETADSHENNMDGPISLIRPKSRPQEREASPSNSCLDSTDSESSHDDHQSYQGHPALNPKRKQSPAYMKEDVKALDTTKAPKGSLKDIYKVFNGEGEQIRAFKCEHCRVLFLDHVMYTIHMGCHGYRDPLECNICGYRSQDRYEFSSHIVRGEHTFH
IKZF2, sequence (Q96SW2 whole entry): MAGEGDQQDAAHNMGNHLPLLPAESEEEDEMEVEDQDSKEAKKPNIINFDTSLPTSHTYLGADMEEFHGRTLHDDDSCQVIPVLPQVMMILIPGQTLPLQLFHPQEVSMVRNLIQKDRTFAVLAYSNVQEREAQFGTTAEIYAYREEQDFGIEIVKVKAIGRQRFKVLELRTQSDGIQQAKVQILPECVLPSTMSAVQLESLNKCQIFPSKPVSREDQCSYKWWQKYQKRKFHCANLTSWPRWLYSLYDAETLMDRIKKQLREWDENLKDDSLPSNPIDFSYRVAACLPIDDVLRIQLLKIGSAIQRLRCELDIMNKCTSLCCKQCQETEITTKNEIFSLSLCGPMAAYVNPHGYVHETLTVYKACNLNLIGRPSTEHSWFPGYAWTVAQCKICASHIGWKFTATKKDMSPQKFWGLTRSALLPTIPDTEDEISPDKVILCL
IKZF2, sequence (Q16531 whole entry partner): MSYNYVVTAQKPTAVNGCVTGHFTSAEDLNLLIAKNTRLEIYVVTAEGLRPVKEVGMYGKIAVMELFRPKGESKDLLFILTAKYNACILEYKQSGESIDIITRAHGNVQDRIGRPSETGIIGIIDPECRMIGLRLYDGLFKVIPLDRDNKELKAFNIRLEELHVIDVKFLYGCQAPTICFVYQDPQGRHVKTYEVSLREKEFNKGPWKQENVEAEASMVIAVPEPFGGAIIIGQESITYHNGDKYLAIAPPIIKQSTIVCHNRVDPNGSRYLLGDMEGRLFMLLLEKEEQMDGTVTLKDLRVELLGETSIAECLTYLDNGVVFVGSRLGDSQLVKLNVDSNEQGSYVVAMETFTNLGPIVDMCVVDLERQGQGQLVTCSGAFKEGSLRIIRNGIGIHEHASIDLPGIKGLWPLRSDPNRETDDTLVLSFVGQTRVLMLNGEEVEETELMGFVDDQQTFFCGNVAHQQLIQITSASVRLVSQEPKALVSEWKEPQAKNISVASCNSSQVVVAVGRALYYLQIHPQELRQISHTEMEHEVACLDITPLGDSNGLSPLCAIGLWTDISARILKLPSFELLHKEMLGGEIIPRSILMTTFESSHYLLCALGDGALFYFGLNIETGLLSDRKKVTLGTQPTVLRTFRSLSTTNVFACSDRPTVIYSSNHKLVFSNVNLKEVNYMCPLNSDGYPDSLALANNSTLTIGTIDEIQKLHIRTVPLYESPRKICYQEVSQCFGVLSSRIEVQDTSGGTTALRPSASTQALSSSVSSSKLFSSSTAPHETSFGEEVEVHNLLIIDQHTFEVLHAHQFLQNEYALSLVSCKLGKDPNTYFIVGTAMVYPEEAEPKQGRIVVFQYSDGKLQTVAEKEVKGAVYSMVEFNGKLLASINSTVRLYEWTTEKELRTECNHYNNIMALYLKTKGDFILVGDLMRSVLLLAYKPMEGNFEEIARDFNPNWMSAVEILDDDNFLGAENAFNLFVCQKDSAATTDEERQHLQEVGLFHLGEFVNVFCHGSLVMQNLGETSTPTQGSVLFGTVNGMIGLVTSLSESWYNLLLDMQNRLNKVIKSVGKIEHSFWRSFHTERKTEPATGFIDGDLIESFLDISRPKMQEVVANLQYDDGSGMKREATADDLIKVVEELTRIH

SMILES	DC50	Dmax
COc1ccc(C(=O)Nc2cccc(CN3CCC4(CC3)COc3c4ccc4c3CN(C3CCC(=O)NC3=O)C4=O)c2)cc1 (centres unmarked) [Compound A177, N-(3-((7-(2,6-dioxopiperidin-3-yl)-6-oxo-7,8-dihydro-2H,6H-spiro[furo[2,3-e]isoindole-3,4′-piperidin]-1′-yl)methyl)phenyl)-4-methoxybenzamide]	< 0.05 µM	> 80%
O=C1CCC(N2Cc3c(ccc4c3OCC43CCN(Cc4ncnn4-c4ccccc4)CC3)C2=O)C(=O)N1 (centres unmarked) [Compound A254, 3-(6-oxo-1′-((1-phenyl-1H-1,2,4-triazol-5-yl)methyl)-6,8-dihydro-2H,7H-spiro[furo[2,3-e]isoindole-3,4′-piperidin]-7-yl)piperidine-2,6-dione]	> 0.5 µM	< 40%
Cn1cc(CN2CCC3(CC2)COc2c3ccc3c2CN(C2CCC(=O)NC2=O)C3=O)c(Cl)n1 (centres unmarked) [Compound A257, 3-(1′-((3-chloro-1-methyl-1H-pyrazol-4-yl)methyl)-6-oxo-6,8-dihydro-2H,7H-spiro[furo[2,3-e]isoindole-3,4′-piperidin]-7-yl)piperidine-2,6-dione]	> 0.5 µM	< 40%
CC1(C)CCc2cccc(CN3CCC4(CC3)COc3c4ccc4c3CN(C3CCC(=O)NC3=O)C4=O)c2O1 (centres unmarked) [Compound A327, 3-(1′-((2,2-dimethylchroman-8-yl)methyl)-6-oxo-6,8-dihydro-2H,7H-spiro[furo[2,3-e]isoindole-3,4′-piperidin]-7-yl)piperidine-2,6-dione]	0.05 to 0.2 µM	60 to 80%
O=C1CC[C@H](N2Cc3c(ccc4c3OCC43CCN(C[C@H]4C[C@@H](Oc5ccc(F)cc5)C4)CC3)C2=O)C(=O)N1 [Compound A358, (S)-3-(1′-(((1s,3R)-3-(4-fluorophenoxy)cyclobutyl)methyl)-6-oxo-6,8-dihydro-2H,7H-spiro[furo[2,3-e]isoindole-3,4′-piperidin]-7-yl)piperidine-2,6-dione]	> 0.5 µM	40 to 60%
O=C1CCC(N2Cc3c(ccc4c3OCC43CCN(Cc4cccc(Oc5ccccc5)c4)CC3)C2=O)C(=O)N1 (centres unmarked) [Compound A86, 3-(6-oxo-1′-(3-phenoxybenzyl)-6,8-dihydro-2H,7H-spiro[furo[2,3-e]isoindole-3,4′-piperidin]-7-yl)piperidine-2,6-dione]	> 0.5 µM	40 to 60%
O=C1CC[C@H](N2Cc3c(ccc4c3OCC43CCN(Cc4cccc(-c5cnn(C6COC6)c5)c4)CC3)C2=O)C(=O)N1 [Compound A265, (S)-3-(1′-(3-(1-(oxetan-3-yl)-1H-pyrazol-4-yl)benzyl)-6-oxo-6,8-dihydro-2H,7H-spiro[furo[2,3-e]isoindole-3,4′-piperidin]-7-yl)piperidine-2,6-dione]	< 0.05 µM	60 to 80%
O=C1CCC(N2Cc3c(ccc4c3OCC43CCN(Cc4cccn5ccnc45)CC3)C2=O)C(=O)N1 (centres unmarked) [Compound A77, 3-(1′-(imidazo[1,2-a]pyridin-8-ylmethyl)-6-oxo-6,8-dihydro-2H,7H-spiro[furo[2,3-e]isoindole-3,4′-piperidin]-7-yl)piperidine-2,6-dione]	> 0.5 µM	40 to 60%
O=C1CCC(N2Cc3c(ccc4c3OCC43CCN(Cc4ccsc4)CC3)C2=O)C(=O)N1 (centres unmarked) [Compound A183, 3-(6-oxo-1′-(thiophen-3-ylmethyl)-6,8-dihydro-2H,7H-spiro[furo[2,3-e]isoindole-3,4′-piperidin]-7-yl)piperidine-2,6-dione]	0.2 to 0.5 µM	40 to 60%
O=C1CCC(N2Cc3c(ccc4c3OCC43CCN(Cc4ccc5[nH]ncc5c4)CC3)C2=O)C(=O)N1 (centres unmarked) [Compound A198, 3-(1′-((1H-indazol-5-yl)methyl)-6-oxo-6,8-dihydro-2H,7H-spiro[furo[2,3-e]isoindole-3,4′-piperidin]-7-yl)piperidine-2,6-dione]	0.2 to 0.5 µM	60 to 80%
